Data on 3 compounds can be found in patent US20240024405A1, “COMPOSITIONS OF CASPASE INHIBITORS AND METHODS OF USE THEREOF” (priority 2022, published 2024).

The subject of assay [1] is caspase-6. Format: cell-based.
In the next assay the test system is HCoV-229E. Format: cell-based.
Assay [2] deals with MERS-CoV. The format is cell-based, human.
For the next assay, the system named is SARS-CoV-1. The format is cell-based.
The test system of assay [3] is MERS-CoV. Format: cell-based.
The test system of the next assay is rMERS-CoV/TKKA. Format: cell-based, MERS-CoV.
The test system of assay [4] is MERS-CoV.
The next assay has as its system rMERS-CoV/TKKD. The format is cell-based, MERS-CoV.
In assay [5] the test system is MERS-CoV. The format is cell-based, human. This is another data set of the same source.
For assay [6], the system named is MERS-CoV. The format is cell-based. This is another data set of the same source.
In another assay the test system is enterovirus A71. Format: cell-based.
The subject of assay [7] is SARS-CoV-2.
The subject of assay [8] is MERS-CoV. The format is cell-based. This is another data set of the same source.
Assay [9] concerns MERS-CoV. The format is cell-based. The source holds these as a separate data set.
Assay [10] has as its target T1, caspase-6 (Homo sapiens, UniProt P55212).
T1 construct: expressed in transfected cells
T1 sequence (P55212 24-179 limits assumed): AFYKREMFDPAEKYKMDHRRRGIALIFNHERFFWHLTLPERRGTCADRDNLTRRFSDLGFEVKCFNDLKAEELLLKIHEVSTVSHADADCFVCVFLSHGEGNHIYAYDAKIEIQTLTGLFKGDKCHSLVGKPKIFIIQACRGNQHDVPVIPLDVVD
T1 sequence (P55212 194-293 limits assumed): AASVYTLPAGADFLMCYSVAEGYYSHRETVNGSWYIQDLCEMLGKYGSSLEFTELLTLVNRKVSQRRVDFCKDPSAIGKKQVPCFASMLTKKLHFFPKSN
The format is cell-based.

A further assay has as its system influenza virus (H1N1). The format is cell-based.
A further assay relates to MERS-CoV MA. Also noted: species or system mice. The following applies: in vivo.
For assay [11], the system named is SARS-CoV-2. Also noted: species or system Golden Syrian hamsters. The following applies: in vivo.

Where a SMILES comes first, the peptide text is derived from it. The star is where a group is joined. Cbz = O=C(OCc1ccccc1)*; CH2F = FC*

With `CN[C@@H]1C[C@H]2O[C@@](C)([C@@H]1OC)n1c3ccccc3c3c4c(c5c6ccccc6n2c5c31)C(=O)NC4` [Staurosporine], the “Caspase-6 activity in cell lysate” value in the assay with caspase-6 [1] is “activated”.
For `CC[C@H](C)[C@H](NC(=O)[C@H](CCC(=O)OC)NC(=O)[C@@H](NC(=O)OCc1ccccc1)C(C)C)C(=O)N[C@@H](CC(=O)OC)C(=O)CF` [z-VEID-fmk, Z-Val-Glu(OMe)-Ile-Asp(OMe)-CH2F] (Cbz-VE(OMe)ID(OMe)-CH2F), in the assay with HCoV-229E, the “HCoV-229E replication (N gene copy)” value was “attenuated”. Moreover, the “MERS-CoV nucleocapsid (N) protein and N gene expression in human lung tissues” value in the assay on MERS-CoV [2] is on record as “significantly reduced”. In addition, the “SARS-CoV-1 replication (N gene copy)” value with SARS-CoV-1 is on record as “attenuated”. In addition, the “MERS-CoV replication among specific caspase inhibitors (MERS-CoV N-positive cells)” value in the assay with MERS-CoV [3] is “most dramatically limited”. In addition, the “Replication of rMERS-CoV/TKKA” value in the assay with rMERS-CoV/TKKA is on record as “not limited”. In addition, in the assay on MERS-CoV [4], the IC50 was found to be 21.1 µM, the “Inhibitory effect on MERS-CoV replication across cell types” value was “conserved across different cell types exceptVeroE6 cells” and the “MERS-CoV replication (N gene copy)” value is “attenuated”. The “Replication of rMERS-CoV/TKKD” value in the assay on rMERS-CoV/TKKD was “remained effective”. Also, the “MERS-CoV replication in human intestinal organoids” value in the assay with MERS-CoV [5] is on record as “inhibited”. In addition, the “Inhibition of production of infectious virus particles in human intestinal organoids” value in the assay on MERS-CoV [5] (100 µM) is “approximately 80%”. Besides, in the assay with MERS-CoV [6], the “Virus replication when inhibitor added during MERS-CoV inoculation” value is listed as “did not reduce”. Also, the “Enterovirus A71 replication (VP1 gene copy)” value in the assay on enterovirus A71 is on record as “did not impact”. For the same compound, the “SARS-CoV-2 replication (RdRp gene copy)” value in the assay on SARS-CoV-2 [7] is reported as “attenuated”. The “Antiviral effect of z-VEID-fmk when the IFN pathway is non-functional” value in the assay on MERS-CoV [8] is recorded as “diminished”. For the same compound, the “Viral inhibitory effect in stable caspase-6 knockdown cells” value with MERS-CoV [9] is “largely diminished”. Besides, on caspase-6 [10], the “Cleavage of MERS-CoV N by co-expressed caspase-6” value was “completely abolished” and the “N cleavage in MERS-CoV-infected cells” value is “similarly inhibited”. For the same compound, the “H1N1 replication (M gene copy)” value with influenza virus (H1N1) was “did not impact”. Also, in the assay on MERS-CoV MA, the “Expression of pro-inflammatory cytokines and chemokines in mouse lungs” value is on record as “significantly attenuated”. In addition, in the assay with MERS-CoV MA (mouse), the “Body weight loss of infected mice” value was “largely inhibited”, the “MERS-CoV MA replication in the lungs” value is “effectively reduced” and the “Survival of infected hDPP4 KI mice” value is recorded as 80%. Moreover, in the assay on SARS-CoV-2 [11] (hamster), the “Alveolar space immune cells infiltration” value is listed as “dramatically inhibited”; the “Body weight of infected hamsters” value is recorded as “significant improvements”; the “Lung damage by histopathological scores” value was “significantly ameliorated”; the “Tissue damage: bronchiolitis, alveolitis and vasculitis” value was “significantly ameliorated”. Further, in the assay on SARS-CoV-2 [11], the “Expression of virus-induced pro-inflammatory cytokines and chemokines in hamster lungs” value is reported as “ameliorated”; the “Hamster lung pathology (H&E)” value is “markedly improved”; the “Number of viral N-protein positive cells in hamster lungs” value was “reduced”; the “SARS-CoV-2 replication in the hamster lungs” value is reported as “significantly reduced”. Also, in the assay with HCoV-OC43, the “HCoV-OC43 replication (N gene copy)” value was “attenuated” and inhibition was half-maximal at 30.6 µM (IC50).
Turning to z-VAD-fmk, the “HCoV-229E replication with pan-caspase inhibitor” value in the assay on HCoV-229E is “similarly limited”. In addition, the “SARS-CoV-1 replication with pan-caspase inhibitor” value with SARS-CoV-1 is “similarly limited”. Further, in the assay on MERS-CoV [4], the “MERS-CoV replication with pan-caspase inhibitor” value is “significantly limited”. In addition, in the assay with SARS-CoV-2 [7], the “SARS-CoV-2 replication with pan-caspase inhibitor” value is “similarly limited”. The “HCoV-OC43 replication with pan-caspase inhibitor” value in the assay on HCoV-OC43 is on record as “similarly limited”.

As a reminder, the IC50 is the concentration needed to halve the response being measured. A low value points to greater potency in that assay.
